In patent publication US10045532B2, “Synergistic herbicidal mixtures for glyphosate-resistant volunteer corn control” (Valent U.S.A., Corporation, priority 2015, dated 2018):
Counter-ions that a name gives are not always drawn.

Key:
Format in all cases: in vivo
[1] = tested on: glyphosate-resistant corn variety P1690; test: Foliar spray of corn at V7 stage in outdoor replicated field plots, corn variety P1690 (Example 2, Table 2); details: for percent control of glyphosate-resistant corn, 9 DAT / percent control of glyphosate-resistant corn, 16 DAT: variety P1690
Description: (§1) Two varieties of corn were foliarly sprayed with mixtures of ethyl [3-[2-chloro-4-fluoro-5-(1-methyl-6-trifluoromethyl-2,4-dioxo-1,2,3,4-tetrahydropyrimidin-3-yl)phenoxy]-2-pyridyloxy]acetate and the potassium salt of glyphosate in outdoor replicated field plots. In addition, mixtures of ethyl [3-[2-chloro-4-fluoro-5-(1-methyl-6-trifluoromethyl-2,4-dioxo-1,2,3,4-tetrahydropyrimidin-3-yl)phenoxy]-2-pyridyloxy]acetate and glufosinate, and N,N′-dimethyl-4,4′-bipyridinium dichloride alone were foliarly sprayed. One corn variety was glyphosate-resistant and the other variety was both glyphosate and glufosinate resistant. The corn plants were at the V7 (plants with seven leaves with visible collars, about 30 to 40 inches tall) stage of development at the time of treatment. Roundup® PowerMax (available from Monsanto Company) was used as the source of the potassium salt of glyphosate. The adjuvant non-ionic surfactant was applied with ethyl [3-[2-chloro-4-fluoro-5-(1-methyl-6-trifluoromethyl-2,4-dioxo-1,2,3,4-tetrahydropyrimidin-3-yl)phenoxy]-2-pyridyloxy]acetate. The effects of the treatments were observed and recorded 9 and 16 days after the treatments (“9 DAT” and “16 DAT”, respectively).

[2] = tested on: glyphosate-resistant and glufosinate-resistant corn variety 765-30; test: Foliar spray of corn at V7 stage in outdoor replicated field plots, corn variety 765-30 (Example 2, Table 3); details: for percent control of glyphosate-resistant and glufosinate-resistant corn, 9 DAT / percent control of glyphosate-resistant and glufosinate-resistant corn, 16 DAT: variety 765-30
Description: as §1

[3] = tested on: volunteer glyphosate-resistant corn; test: Foliar spray of glyphosate-resistant corn at V4 stage in outdoor replicated field plots (Example 1)
Description: Glyphosate-resistant corn was foliarly sprayed with mixtures of ethyl [3-[2-chloro-4-fluoro-5-(1-methyl-6-trifluoromethyl-2,4-dioxo-1,2,3,4-tetrahydropyrimidin-3-yl)phenoxy]-2-pyridyloxy]acetate and the potassium salt of glyphosate in outdoor replicated field plots. The corn was at the V4 (plants with four leaves with visible collars, about 6 to 8 inches tall) stage of development at the time of treatment. Roundup® PowerMax (available from Monsanto Company) was used as the source of the potassium salt of glyphosate. The adjuvant crop oil concentrate was applied with ethyl [3-[2-chloro-4-fluoro-5-(1-methyl-6-trifluoromethyl-2,4-dioxo-1,2,3,4-tetrahydropyrimidin-3-yl)phenoxy]-2-pyridyloxy]acetate. The effects of the treatments were observed and recorded 9 and 23 days after the treatments (“9 DAT” and “23 DAT”, respectively).

[4] = Treatment 2, 1.25 g active/hectare
[5] = Treatment 3, 2.5 g active/hectare
[6] = Treatment 4, 5 g active/hectare
[7] = Treatment 5, 10 g active/hectare
[8] = Treatment 6, 20 g active/hectare
[9] = Treatment 7, 30 g active/hectare
[10] = Treatment 3, 5.6 g active/hectare
[11] = Treatment 4, 10.1 g active/hectare
[12] = Treatment 5, 20.2 g active/hectare
[13] = Treatment 6, 30.3 g active/hectare
[14] = Treatment 7, 40.3 g active/hectare
[15] = Treatment 15, 500 g active/hectare
[16] = Treatment 18, 840 g active/hectare
[17] = Treatment 8, 1260 g active/hectare
[18] = Treatment 2, 1054 g active/hectare

**Q.** How did the “percent control of glyphosate-resistant corn, 9 DAT” value [1, 4] turn out when `CCOC(=O)COc1ncccc1Oc1cc(-n2c(=O)cc(C(F)(F)F)n(C)c2=O)c(F)cc1Cl` [ethyl [3-[2-chloro-4-fluoro-5-(1-methyl-6-trifluoromethyl-2,4-dioxo-1,2,3,4-tetrahydropyrimidin-3-yl)phenoxy]-2-pyridyloxy]acetate] was run?
**A.** 16.15%

**Q.** And the “percent control of glyphosate-resistant corn, 16 DAT” value [1, 4]?
**A.** 25%

**Q.** And the “percent control of glyphosate-resistant corn, 9 DAT” value [1, 5]?
**A.** 49.78%

**Q.** And the “percent control of glyphosate-resistant corn, 16 DAT” value [1, 5]?
**A.** 55%

**Q.** And the “percent control of glyphosate-resistant corn, 9 DAT” value [1, 6]?
**A.** 44.48%

**Q.** And the “percent control of glyphosate-resistant corn, 16 DAT” value [1, 6]?
**A.** 40%

**Q.** And the “percent control of glyphosate-resistant corn, 9 DAT” value [1, 7]?
**A.** 57.6%

**Q.** And the “percent control of glyphosate-resistant corn, 16 DAT” value [1, 7]?
**A.** 42.5%

**Q.** And the “percent control of glyphosate-resistant corn, 9 DAT” value [1, 8]?
**A.** 81.8%

**Q.** What about the “percent control of glyphosate-resistant corn, 16 DAT” value [1, 8] of the same compound?
**A.** 100%

**Q.** And the “percent control of glyphosate-resistant corn, 9 DAT” value [1, 9]?
**A.** 95%

**Q.** What about the “percent control of glyphosate-resistant corn, 16 DAT” value [1, 9] of the same compound?
**A.** 100%

**Q.** And the “percent control of glyphosate-resistant and glufosinate-resistant corn, 9 DAT” value [2, 4]?
**A.** 16.15%

**Q.** And the “percent control of glyphosate-resistant and glufosinate-resistant corn, 16 DAT” value [2, 4]?
**A.** 25%

**Q.** What about the “percent control of glyphosate-resistant and glufosinate-resistant corn, 9 DAT” value [2, 5] of the same compound?
**A.** 49.78%

**Q.** And the “percent control of glyphosate-resistant and glufosinate-resistant corn, 16 DAT” value [2, 5]?
**A.** 52.5%

**Q.** What about the “percent control of glyphosate-resistant and glufosinate-resistant corn, 9 DAT” value [2, 6] of the same compound?
**A.** 42.3%

**Q.** What about the “percent control of glyphosate-resistant and glufosinate-resistant corn, 16 DAT” value [2, 6] of the same compound?
**A.** 40%

**Q.** What about the “percent control of glyphosate-resistant and glufosinate-resistant corn, 9 DAT” value [2, 7] of the same compound?
**A.** 57.6%

**Q.** What about the “percent control of glyphosate-resistant and glufosinate-resistant corn, 16 DAT” value [2, 7] of the same compound?
**A.** 42.5%

**Q.** And the “percent control of glyphosate-resistant and glufosinate-resistant corn, 9 DAT” value [2, 8]?
**A.** 81.8%

**Q.** And the “percent control of glyphosate-resistant and glufosinate-resistant corn, 16 DAT” value [2, 8]?
**A.** 91.3%

**Q.** What about the “percent control of glyphosate-resistant and glufosinate-resistant corn, 9 DAT” value [2, 9] of the same compound?
**A.** 95%

**Q.** And the “percent control of glyphosate-resistant and glufosinate-resistant corn, 16 DAT” value [2, 9]?
**A.** 100%

**Q.** What about the “percent control of volunteer glyphosate-resistant corn, 9 DAT” value [3, 10] of the same compound?
**A.** 68.78%

**Q.** What about the “percent control of volunteer glyphosate-resistant corn, 23 DAT” value (“percent control … 23 DAT” for short) [3, 10] of the same compound?
**A.** 6.7%

**Q.** And the “percent control of volunteer glyphosate-resistant corn, 9 DAT” value [3, 11]?
**A.** 95.75%

**Q.** And the “percent control … 23 DAT” value [3, 11]?
**A.** 87.74%

**Q.** What about the “percent control of volunteer glyphosate-resistant corn, 9 DAT” value [3, 12] of the same compound?
**A.** 99.89%

**Q.** What about the “percent control … 23 DAT” value [3, 12] of the same compound?
**A.** 99.89%

**Q.** And the “percent control of volunteer glyphosate-resistant corn, 9 DAT” value [3, 13]?
**A.** 100%

**Q.** And the “percent control … 23 DAT” value [3, 13]?
**A.** 100%

**Q.** What about the “percent control of volunteer glyphosate-resistant corn, 9 DAT” value [3, 14] of the same compound?
**A.** 100%

**Q.** What about the “percent control … 23 DAT” value [3, 14] of the same compound?
**A.** 100%

**Q.** `CP(=O)(O)CCC(N)C(=O)O` (stereo not drawn) [Glufosinate, reference compound] was tested. Which “percent control of glyphosate-resistant corn, 9 DAT” value [1, 15] did it give?
**A.** 92.7%

**Q.** What about the “percent control of glyphosate-resistant corn, 16 DAT” value [1, 15] of the same compound?
**A.** 100%

**Q.** What about the “percent control of glyphosate-resistant and glufosinate-resistant corn, 9 DAT” value [2, 15] of the same compound?
**A.** 3.8%

**Q.** And the “percent control of glyphosate-resistant and glufosinate-resistant corn, 16 DAT” value [2, 15]?
**A.** 0%

**Q.** `C[n+]1ccc(-c2cc[n+](C)cc2)cc1.[Cl-].[Cl-]` [N,N′-dimethyl-4,4′-bipyridinium dichloride, reference compound] was tested. Which “percent control of glyphosate-resistant corn, 9 DAT” value [1, 16] did it give?
**A.** 84%

**Q.** What about the “percent control of glyphosate-resistant corn, 16 DAT” value [1, 16] of the same compound?
**A.** 77.5%

**Q.** And the “percent control of glyphosate-resistant and glufosinate-resistant corn, 9 DAT” value [2, 16]?
**A.** 81.3%

**Q.** What about the “percent control of glyphosate-resistant and glufosinate-resistant corn, 16 DAT” value [2, 16] of the same compound?
**A.** 92.5%

**Q.** Which results are given for `O=C(O)CNCP(=O)(O)O` [Glyphosate, potassium salt, reference compound]?
**A.** percent control of glyphosate-resistant corn, 9 DAT [1, 17]: 0%; percent control of glyphosate-resistant corn, 16 DAT [1, 17]: 0%; activity against glyphosate-resistant corn when applied alone ([1]; applied alone, Table 2, variety P1690): no activity; percent control of glyphosate-resistant and glufosinate-resistant corn, 9 DAT [2, 17]: 0%; percent control of glyphosate-resistant and glufosinate-resistant corn, 16 DAT [2, 17]: 0%; activity against glyphosate-resistant corn when applied alone ([2]; applied alone, Table 3, variety 765-30): no activity; percent control of volunteer glyphosate-resistant corn, 9 DAT [3, 18]: 0%; percent control of volunteer glyphosate-resistant corn, 23 DAT [3, 18]: 0%; activity against glyphosate-resistant corn when applied alone ([3]; applied alone, Table 1): no activity
